Test results published in patent US20250034600A1, “ONIUM SALT COMPOSITIONS, METHODS FOR PRODUCING CELLULOSE HYDROLYSATES, ALCOHOLS AND/OR ORGANIC ACIDS IN THE PRESENCE OF ONIUM SALT COMPOSITIONS” (KOEI CHEMICAL COMPANY, LIMITED, priority 2023, published 2025).

Assays:
dry yeast = experiment: Fermentation of glucose with dry yeast to ethanol in the presence of the onium salt; assay type: cell-based; conditions: 0.20 g onium salt, 0.5 g glucose, 9.6 g water, 0.05 g dry yeast, stand overnight; ethanol quantified by GC
Method: (§1) 0.20 g of 1,3-bis(3-methoxypropyl)imidazolium acetate, 0.5 g of glucose (β-D-glucose (including α-D-glucose), produced by Tokyo Chemical Industry Co., Ltd.), and 9.6 g of ultrapure water were placed in a sample tube. The resulting mixture was stirred until the glucose was completely dissolved. After the glucose had been completely dissolved, 0.05 g of dry yeast was added and the resulting mixture was allowed to stand overnight. After filtering off the insoluble matter, the amount of ethanol produced was quantified by GC (gas chromatography) to calculate the ethanol yield.
as §1, with “1,3-bis(methoxyethoxypropyl)imidazolium acetate ([(MeOEtOPr)2Im][AcO]),” for “1,3-bis(3-methoxypropyl)imidazolium acetate,”, “added. The” for “added and the”
as §1, with “1,3-bis(ethoxypropyl)imidazolium acetate ([(EtOPr)2Im][AcO]),” for “1,3-bis(3-methoxypropyl)imidazolium acetate,”
The same procedure as in Example 2 was repeated except that 1-ethyl-3-methylimidazolium acetate was used in place of the 1,3-bis(3-methoxypropyl)imidazolium acetate used in Example 2.

[1] = test system: cellulase (produced by Sigma) and dry yeast; experiment: Cellulose dissolution, cellulase hydrolysis and dry yeast fermentation to ethanol in one pot in the presence of the onium salt; assay type: cell-based; conditions: 2.00 g onium salt, 0.50 g microcrystalline cellulose, 80° C. 3 h; 38.0 g water, 20 μL cellulase, 50° C. 10 h; 0.50 g dry yeast, 30° C. 7 h; GC
Method: 2.00 g of 1,3-bis(3-methoxypropyl)imidazolium acetate was placed in a sample tube, and 0.50 g of microcrystalline cellulose (Avicel (registered trademark) PH-101) was added. The resulting mixture was heated and stirred at 80° C. for 3 hours. After confirming by visual observation that the microcrystalline cellulose had been […], 38.0 g of ultrapure water and 20 μL of cellulase (produced by Sigma) were added. The resulting mixture was stirred at 50° C. for 10 hours. 0.50 g of dry yeast was then added and the resulting mixture was gently stirred at 30° C. After 7 hours, the insoluble matter was filtered off, and the amount of ethanol produced was quantified by GC (gas chromatography) to calculate the ethanol yield.
The same procedure as in Example 5 was repeated, except that 1-ethyl-3-methylimidazolium acetate was used in place of the 1,3-bis(3-methoxypropyl)imidazolium acetate used in Example 5.
The same procedure as in Example 5 was repeated, except that the 1,3-bis(3-methoxypropyl)imidazolium acetate used in Example 5 was not added and 2.00 g of ultrapure water was used in place of 2.00 g of 1,3-bis(3-methoxypropyl)imidazolium acetate.

[2] = test system: yeast (Saccharomyces cerevisiae); experiment: Antibacterial test (minimum inhibitory concentration, MIC value) against yeast; assay type: cell-based; conditions: lower MIC = greater inhibition
Method: An antibacterial test (measurement of minimum inhibitory concentration (MIC value)) of 1,3-bis(3-methoxypropyl)imidazolium acetate and 1-ethyl-3-methylimidazolium acetate against yeast (Saccharomyces cerevisiae) was carried out. A lower MIC value indicates a greater degree of inhibition of enzymatic and/or microbial activity.

[3] = test system: cellulase (produced by Sigma); experiment: Enzymatic hydrolysis of microcrystalline cellulose with cellulase in the presence of the onium salt; assay type: biochemical; conditions: 1.00 g microcrystalline cellulose in 5.00 g onium salt; 95.0 g water, 10 μL cellulase, 4 days; calculated from cellulose residue
Method: 5.00 g of 1,3-bis(3-methoxypropyl)imidazolium acetate was placed in a flask and maintained at 50° C. 1.00 g of microcrystalline cellulose (Avicel (registered trademark) PH-101) was added at 50° C., and the resulting mixture was stirred until visual observation confirmed that microcrystalline cellulose had been completely dissolved. 95.0 g of ultrapure water and 10 μL of cellulase (produced by Sigma) were added, and the resulting mixture was stirred for 4 days. The remaining cellulose residue was recovered by filtration, and the glucose conversion rate was calculated.
The same procedure as in Example 1 was repeated except that 1-ethyl-3-methylimidazolium acetate was used in place of the 1,3-bis(3-methoxypropyl)imidazolium acetate used in Example 1.

Question: `CC(=O)[O-].CCOCCCn1cc[n+](CCCOCC)c1` [[EtOPr]2Im] [AcO], 1,3-bis(ethoxypropyl)imidazolium acetate] was tested. Which Ethanol yield (dry yeast) did it give?
Answer: 46.38%

Question: How did the Ethanol yield (dry yeast) turn out when `CC(=O)[O-].COCCOCCCn1cc[n+](CCCOCCOC)c1` [[MeOEtOPr]2Im] [AcO], 1,3-bis(methoxyethoxypropyl)imidazolium acetate] was run?
Answer: 53.77%

Question: With `CC(=O)[O-].COCCCn1cc[n+](CCCOC)c1` [[MeOPr]2Im] [AcO], 1,3-bis(3-methoxypropyl)imidazolium acetate] as the compound, how does the Ethanol yield [1] read?
Answer: 51.5

Question: And the MIC value [2]?
Answer: 5%

Question: And the Glucose conversion rate [3]?
Answer: 73%

Question: What about the Ethanol yield (dry yeast) of the same compound?
Answer: 66.64%

Question: Which results are given for `CC(=O)[O-].CCn1cc[n+](C)c1` [1-Ethyl-3-methylimidazolium acetate, 1-ethyl-3-methylimidazolium acetate, reference compound]?
Answer: Ethanol yield [1]: 16.0; MIC value [2]: 0.5%; Glucose conversion rate [3]: 8%; Ethanol yield (dry yeast): 14.2%
